{"source": "patent US20260183411A1", "about": "“TARGETING SORTILIN” (priority 2024, published 2026)", "key": {"MDA-MB-231 xenograft": {"tested_on": "MDA-MB-231 xenograft", "assay": "MDA-MB-231 murine xenograft efficacy model", "format": "in vivo, mouse", "procedure": "Murine xenograft experiments were conducted at WuXi AppTec and/or Charles River Laboratories and the care and use of animals was conducted in accordance with the regulations of the Association for Assessment and Accreditation of Laboratory Animal Care (AAALAC). MDA-MB-231 tumor cells (ATCC, Manassas, VA, cat #HTB-26) were grown and maintained in L15 medium supplemented with 10% heat inactivated fetal bovine serum, 1% Antibiotic-Antimycotic, and L-glutamine (2 mM) at 37° C. in an atmosphere in 5% CO2, 95% air. BALB/c Nude, female, 6-8 weeks, weighing approximately 18-22 g were purchased from Vital River Laboratory Animal Technology Co., LTD. Mice were inoculated subcutaneously at the right flank with MDA-MB-231 tumor cells (e.g., triple negative breast cancer cells) (10×10^6) in 0.2 mL of PBS with Matrigel (1:1) for tumor development. Animals were randomized and treatment was started when the average tumor volume reached approximately 150-200 mm^3 for the efficacy study. Dosing volume was adjusted based on body weight and was administered at 10 mL/Kg. […] Free MMAE payload was also tested, and similarly dissolved in 25 mM Histidine 10% sucrose pH 7 and one or more of the following doses, 0.6, 0.06 mg/kg, were administered to the mice i.v. at a QW×4 schedule. Tumor sizes were measured twice weekly in two dimensions using a caliper, and the volume in mm^3 calculated using the formula: V=0.5 a×b^2, where a and b are the long and short diameters of the tumor, respectively. TGI was calculated for each group using the formula: TGI (%)=[1−(Ti−T0)/(Vi−V0)]×100; where Ti is the average tumor volume of a treatment group on a given day, TO is the average tumor volume of the treatment group on the first day of treatment, Vi is the average tumor volume of the vehicle control group on the same day with Ti, and V0 is the average tumor volume of the vehicle group on the first day of treatment.\nTo characterize the effects of the MMAE payload alone, we included free MMAE at molar equivalency to PDCs, and tested at 0.6 and 0.06 mg/kg, as separate arms.\nTo characterize the effects of the MMAE payload alone, we included free MMAE at molar equivalency to PDCs, and tested at 0.6 mg/kg."}, "[1]": {"assay": "Murine hematotoxicity assay", "format": "in vivo, mouse", "conditions": "3 mg/kg i.v. QW×4, BALB/c mice", "procedure": "(§1) Murine hematotoxicity experiments were conducted at Charles River Laboratories and the care and use of animals was conducted in accordance with the regulations of the Association for Assessment and Accreditation of Laboratory Animal Care (AAALAC). Wild type BALB/c, female, 7-8 weeks, weighing approximately 18-22 g were randomized and dosed intravenously with control or test articles at a QW×4 schedule. Dosing volume was adjusted based on body weight and was administered at 10 mL/Kg. PDCs were dissolved in 25 mM Histidine 10% sucrose pH 7 and 3 mg/kg was administered. Free MMAE payload was also tested, and similarly dissolved in 25 mM Histidine 10% sucrose pH 7 and administered to the mice at a dose of […] by i.v. injection at a QW×4 schedule. 3 days following each dose, 150 μL of whole blood was collected via submandibular method and placed in K2 EDTA tubes stored on ice. Blood neutrophil counts were performed on the day of collection by IDEXX labs. Body weights were recorded twice a week until study endpoint.\nas §1, with “As outlined in the material” for “Murine hematotoxicity experiments were conducted at Charles River Laboratories”, “methods” for “the care and use”, “Example 1, wild” for “animals was conducted in accordance with the regulations of the Association for Assessment and Accreditation of Laboratory Animal Care (AAALAC). Wild”, “PDCs were dissolved in 25 mM Histidine 10% sucrose pH 7 and 3 mg/kg was administered.” left out"}, "[2]": {"assay": "Murine serum stability assay", "format": "in vitro ADME, mouse", "conditions": "mouse, serum; linear peptides, Table 11; read-out: Murine serum stability assay, T1/2", "procedure": "Serum was drawn from male CD-1 mice by Pharmidex. Lyophilized peptides were solubilized in DMSO and then further diluted into male mouse (CD-1) serum at 37° C. in duplicates. The reaction was incubated at 37° C. and samples extracted at 6 time points: 0, 0.16, 0.5, 1, 3, and 6 hrs. Acetonitrile (ACN) with an internal standard (tolbutamide) was added to stop the incubation. Samples were centrifuged, and the supernatant was analyzed by HPLC-MS/MS for the parent compound."}, "[3]": {"assay": "Dynamic light scattering (solubility/aggregation)", "format": "physicochemical", "conditions": "working concentrations (250 nM, PBS, pH 7.4)", "procedure": "Samples were spun down on a bench top centrifuge, 15 minutes, 15,000 rpm, room temperature, to pellet any aggregated peptide/dust before taking a measurement. Visual inspection of the tubes was used to identify if any large pellets were formed, which is indicative of large aggregates. […] The plate was then transferred and read on the DLS instrument (Wyatt Technology DynaPro Plate Reader III) at 25° C."}, "rat SORT1 (76-752)-His": {"biological_target": "T1, rat SORT1 (76-752)-His (rat, UniProt O54861 76-752)", "T1 construct": "range 76-752; Amine-coupled to CM5 chip for SPR", "T1 sequence (looked up)": "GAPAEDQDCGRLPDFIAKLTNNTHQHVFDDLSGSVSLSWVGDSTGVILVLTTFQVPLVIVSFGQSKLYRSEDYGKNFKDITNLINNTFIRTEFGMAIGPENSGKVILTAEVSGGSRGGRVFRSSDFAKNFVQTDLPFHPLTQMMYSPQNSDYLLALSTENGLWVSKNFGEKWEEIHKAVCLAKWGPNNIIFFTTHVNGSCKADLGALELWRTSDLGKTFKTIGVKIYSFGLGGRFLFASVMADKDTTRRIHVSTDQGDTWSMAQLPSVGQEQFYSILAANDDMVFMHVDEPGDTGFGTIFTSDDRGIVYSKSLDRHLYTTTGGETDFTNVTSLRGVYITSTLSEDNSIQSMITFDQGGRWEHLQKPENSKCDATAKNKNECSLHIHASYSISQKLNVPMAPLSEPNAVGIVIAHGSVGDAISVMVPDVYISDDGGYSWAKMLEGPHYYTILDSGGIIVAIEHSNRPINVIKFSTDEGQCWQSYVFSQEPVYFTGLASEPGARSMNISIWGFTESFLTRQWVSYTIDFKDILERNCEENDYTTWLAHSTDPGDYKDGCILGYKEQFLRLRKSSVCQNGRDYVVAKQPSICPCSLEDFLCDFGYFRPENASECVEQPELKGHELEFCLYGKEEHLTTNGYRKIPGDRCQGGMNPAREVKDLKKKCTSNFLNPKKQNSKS", "assay": "SPR (Biacore 8K), SORT1 on CM5 chip, unconjugated peptide with conjugation handles as analyte, 1:1 model", "procedure": "(§2) SPR analysis was performed on Series S CM5 chips (Cytiva) using a Biacore 8K instrument (Cytiva). Sensorgrams were double-referenced by subtracting the response on both a reference flow cell and a blank sample. Human SORT1 (78-755)-His (Acrobiosystems), human SORT1 (78-755)-His(GenScript), mouse SORT1 (76-753)-His (R&D Systems), rat SORT1 (76-752)-His (GenScript), and cyno SORT1 (76-753)-His (GenScript) were diluted to 20-60 μg/mL in 10 mM sodium acetate pH 4.5 buffer and immobilized onto Series S CM5 chips using amine coupling at a flow rate of 10 μL/min for 45-100 s.\n(§3) Ten start-up cycles and a blank cycle preceded each analysis run. The runs were performed by sequential injections of analyte (0-20 nM, 3-fold serial dilutions) with a 90 s association and 900 s dissociation at a flow rate of 30 μL/min, followed by two regeneration cycles with 2 M MgCl2 for 90 s at a flow rate of 10 μL/min. […] Five start-up cycles and a blank cycle preceded each analysis run. The runs were performed by sequential injections of analyte (0-25 nM) with a 150 seconds (s) association and 300 s dissociation at a flow rate of 30 μL/min, followed by a regeneration with 2 M MgCl₂ for 200 s at a flow rate of 10 μL/min. The kinetic rate constants (kₐ and kd) and the equilibrium binding constant (Kd) were calculated using a 1:1 kinetic binding model on the Biacore Insight Evaluation Software (Cytiva).\n(§4) SPR analysis was performed on Series S CM5 chips (Cytiva) using a Biacore 8K instrument (Cytiva). Sensorgrams were double-referenced by subtracting the response on both a reference flow cell and a blank sample. The SPR analysis was conducted using four different SORT1 species: Human SORT1, Mouse SORT1, Rat SORT1, and Cyno SORT1. The samples were prepared according to the general procedure described above herein. The kinetic rate constants (ka and […]) and the equilibrium binding constant (Kd) were calculated using a 1:1 kinetic binding model on the Biacore Insight Evaluation Software (Cytiva)."}, "cyno SORT1 (76-753)-His": {"biological_target": "T2, cyno SORT1 (76-753)-His (cyno, UniProt A0A2K5VHG2 74-751)", "T2 construct": "range 76-753; Amine-coupled to CM5 chip for SPR", "T2 sequence": "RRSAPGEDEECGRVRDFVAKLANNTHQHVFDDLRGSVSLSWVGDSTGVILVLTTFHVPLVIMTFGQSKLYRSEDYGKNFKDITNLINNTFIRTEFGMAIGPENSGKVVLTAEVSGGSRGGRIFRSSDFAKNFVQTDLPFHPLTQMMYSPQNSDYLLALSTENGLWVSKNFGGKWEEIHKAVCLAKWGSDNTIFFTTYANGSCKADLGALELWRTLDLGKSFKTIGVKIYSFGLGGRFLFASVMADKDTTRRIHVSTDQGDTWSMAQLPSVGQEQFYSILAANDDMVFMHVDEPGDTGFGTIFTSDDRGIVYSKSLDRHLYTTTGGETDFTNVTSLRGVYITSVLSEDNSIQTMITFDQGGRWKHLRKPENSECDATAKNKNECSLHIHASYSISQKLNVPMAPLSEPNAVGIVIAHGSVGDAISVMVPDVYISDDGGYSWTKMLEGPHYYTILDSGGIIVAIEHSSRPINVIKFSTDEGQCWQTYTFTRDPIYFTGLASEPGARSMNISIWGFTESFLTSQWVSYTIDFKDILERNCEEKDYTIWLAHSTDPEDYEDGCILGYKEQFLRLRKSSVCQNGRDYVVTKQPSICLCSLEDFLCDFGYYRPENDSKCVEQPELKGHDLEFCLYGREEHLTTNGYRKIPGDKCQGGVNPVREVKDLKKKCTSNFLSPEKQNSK", "assay": "SPR (Biacore 8K), SORT1 on CM5 chip, unconjugated peptide with conjugation handles as analyte, 1:1 model", "procedure": "as §2, §3, §4"}}, "note": "Where no end group is shown, it is not given here. [ ]: non-standard residue; d: D form. Cba = N[C@@H](CC1CCC1)C(=O)O; Tle = CC(C)(C)[C@H](N)C(=O)O"}
{"molecule": "CC[C@H](C)[C@@H]([C@@H](CC(=O)N1CCC[C@H]1[C@H](OC)[C@@H](C)C(=O)N[C@H](C)[C@@H](O)c1ccccc1)OC)N(C)C(=O)[C@@H](NC(=O)[C@H](C(C)C)N(C)C(=O)OCc1ccc(NC(=O)[C@H](CCCNC(N)=O)NC(=O)[C@@H](NC(=O)CCCC(=O)NCCC(=O)N(C)CC(=O)N(C)CC(=O)N(C)CC(=O)N(C)CC(=O)N[C@@H](C)C(=O)N2CCC[C@H]2C(=O)N[C@@H](CCCNC(=N)N)C(=O)N[C@@H](Cc2c[nH]c3ccccc23)C(=O)N[C@@H](CC(=O)O)C(=O)N[C@@H](C)C(=O)N2CCC[C@H]2C(=O)N[C@@H](CC(C)C)C(=O)N[C@@H](CCCNC(=N)N)C(=O)N[C@@H](CC(=O)O)C(=O)N2CCC[C@H]2C(=O)N[C@@H](C)C(=O)N[C@@H](CC(C)C)C(=O)N[C@@H](CCCNC(=N)N)C(=O)N[C@@H](CCC(N)=O)C(=O)N[C@H](C(=O)N[C@@H](CC2CCC2)C(=O)O)C(C)(C)C)C(C)C)cc1)C(C)C", "note": "[Arb-SAR-Q15-PDC]", "values": [{"measurement": "tumor growth inhibited relative to vehicle", "setting": "MDA-MB-231 xenograft; 3 mg/kg i.v. QW×4, day 22", "value": 98, "unit": "%"}, {"measurement": "body weight loss (Example 8)", "setting": "MDA-MB-231 xenograft; PDCs 3 mg/kg, free MMAE at molar equivalency (0.6 mg/kg)", "value": "body weight loss tracked each other"}, {"measurement": "blood neutrophil counts compared to vehicle or MMAE treatment", "setting": "[1]", "value": "reduced neutrophil counts"}]}
{"molecule": "CC(C)C[C@H](NC(=O)[C@H](CCCNC(=N)N)NC(=O)[C@H](CC(C)C)NC(=O)[C@H](C)NC(=O)[C@H](CC(C)C)NC(=O)[C@H](CCCNC(=N)N)NC(=O)[C@H](CCC(N)=O)NC(=O)[C@H](CC(C)C)NC(=O)[C@H](C)NC(=O)[C@@H]1CCCN1C(=O)[C@H](Cc1c[nH]c2ccccc12)NC(=O)[C@@H]1CCCN1C(=O)[C@H](C)NC(=O)[C@H](CCCNC(=N)N)NC(=O)[C@@H]1CCCN1C(=O)[C@H](CC(=O)O)NC(=O)[C@@H](N)CC(=O)O)C(=O)O", "note": "[PRGN_RL]", "values": [{"measurement": "half-life", "setting": "[2]", "value": 27.7, "unit": "min"}, {"measurement": "solubility (DLS)", "setting": "[3]", "value": "good solubility"}]}
{"molecule": "CC(C)C[C@H](NC(=O)[C@H](CC(C)C)NC(=O)[C@H](CCC(N)=O)NC(=O)[C@H](CCCNC(=N)N)NC(=O)[C@H](CC(C)C)NC(=O)[C@H](C)NC(=O)[C@@H]1CCCN1C(=O)[C@H](CC(=O)O)NC(=O)[C@H](CCCNC(=N)N)NC(=O)[C@H](CC(C)C)NC(=O)[C@@H]1CCCN1C(=O)[C@H](C)NC(=O)[C@H](CC(=O)O)NC(=O)[C@H](Cc1c[nH]c2ccccc12)NC(=O)[C@H](CCCNC(=N)N)NC(=O)[C@@H]1CCCN1C(=O)[C@H](C)N)C(=O)O", "note": "[PRGN_WT]", "values": [{"measurement": "half-life", "setting": "[2]", "value": 3.16, "unit": "min"}, {"measurement": "solubility (DLS)", "setting": "[3]", "value": "good solubility"}]}
{"molecule": "APRWDAPLRDPALRQ[Tle][Cba] (also: conjugation handles, not given here, also called Arb-SAR-Q15)", "note": "[SORT1 peptide 2 (w/conjugation handles), unconjugated]", "values": [{"measurement": "Kd", "setting": "rat SORT1 (76-752)-His", "value": 0.757, "unit": "nM"}, {"measurement": "Kd", "setting": "cyno SORT1 (76-753)-His", "value": 0.152, "unit": "nM"}]}
